Assay results reported in the supplement of paper PMC10307832.

What was measured:
Test in all cases: relative viability (nuclei count vs DMSO), 5 days (fraction); higher = more cells survive
Linsitinib + Dasatinib = compound: C[C@]1(O)C[C@@H](c2nc(-c3ccc4ccc(-c5ccccc5)nc4c3)c3c(N)nccn32)C1 [Linsitinib] + Cc1nc(Nc2ncc(C(=O)Nc3c(C)cccc3Cl)s2)cc(N2CCN(CCO)CC2)n1 [Dasatinib] (partner 0.075 µM)
How it was run: (§1)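 Lung cancer cell lines were pin-tool dosed in 1536-well plates on the day after seeding, with either a lone drug or a fixed anchor-drug dose plus five library-drug doses (not always all listed) in √10 steps. Nuclei were counted on 4× images after 5 days. Relative viability is the ratio of treated-well to vehicle-well nuclei counts, with each value a median of duplicate plates.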

Ispinesib + Palbociclib = compound: Cc1ccc(C(=O)N(CCCN)[C@@H](c2nc3cc(Cl)ccc3c(=O)n2Cc2ccccc2)C(C)C)cc1 [Ispinesib] + CC(=O)c1c(C)c2cnc(Nc3ccc(N4CCNCC4)cn3)nc2n(C2CCCC2)c1=O [Palbociclib] (partner 0.5 µM)
How it was run: as §1

Linsitinib + Alpelisib = compound: C[C@]1(O)C[C@@H](c2nc(-c3ccc4ccc(-c5ccccc5)nc4c3)c3c(N)nccn32)C1 [Linsitinib] + Cc1nc(NC(=O)N2CCC[C@H]2C(N)=O)sc1-c1ccnc(C(C)(C)C(F)(F)F)c1 [Alpelisib] (partner 2 µM)
How it was run: as §1

Linsitinib + Pictilisib = compound: C[C@]1(O)C[C@@H](c2nc(-c3ccc4ccc(-c5ccccc5)nc4c3)c3c(N)nccn32)C1 [Linsitinib] + CS(=O)(=O)N1CCN(Cc2cc3nc(-c4cccc5[nH]ncc45)nc(N4CCOCC4)c3s2)CC1 [Pictilisib] (partner 1 µM)
How it was run: as §1

Cell Line | relative viability (Linsitinib + Dasatinib; first compound 0.01 µM) | relative viability (Linsitinib + Dasatinib; first compound 0.03162 µM) | relative viability (Linsitinib + Dasatinib; first compound 0.1 µM) | relative viability (Linsitinib + Dasatinib; first compound 0.3162 µM) | relative viability (Linsitinib + Dasatinib; first compound 1 µM) | relative viability (Ispinesib + Palbociclib; first compound 0.001 µM) | relative viability (Ispinesib + Palbociclib; first compound 0.003162 µM) | relative viability (Ispinesib + Palbociclib; first compound 0.01 µM) | relative viability (Ispinesib + Palbociclib; first compound 0.03162 µM) | relative viability (Ispinesib + Palbociclib; first compound 0.1 µM) | relative viability (Linsitinib + Alpelisib; first compound 0.01 µM) | relative viability (Linsitinib + Alpelisib; first compound 0.03162 µM) | relative viability (Linsitinib + Alpelisib; first compound 0.1 µM) | relative viability (Linsitinib + Alpelisib; first compound 0.3162 µM) | relative viability (Linsitinib + Alpelisib; first compound 1 µM) | relative viability (Linsitinib + Pictilisib; first compound 0.01 µM) | relative viability (Linsitinib + Pictilisib; first compound 0.03162 µM) | relative viability (Linsitinib + Pictilisib; first compound 0.1 µM) | relative viability (Linsitinib + Pictilisib; first compound 0.3162 µM) | relative viability (Linsitinib + Pictilisib; first compound 1 µM)
NCI-H23 | 0.837 | 0.807 | 0.571 | 0.415 | 0.366 | 0.457 | 0.529 | 0.629 | 0.372 | 0.187 | 0.728 | 0.577 | 0.582 | 0.448 | 0.516 | 0.445 | 0.412 | 0.521 | 0.184 | 0.395
NCI-H322M | 0.244 | 0.256 | 0.229 | 0.223 | 0.26 | 0.5 | 0.505 | 0.494 | 0.463 | 0.426 | 0.711 | 0.774 | 0.921 | 0.703 | 0.673 | 0.496 | 0.502 | 0.506 | 0.503 | 0.433
NCI-H358 | 0.162 | 0.167 | 0.159 | 0.148 | 0.142 | 0.125 | 0.13 | 0.143 | 0.106 | 0.0965 | 0.794 | 0.804 | 0.734 | 0.471 | 0.479 | 0.317 | 0.232 | 0.333 | 0.261 | 0.281
NCI-H441 | 0.484 | 0.55 | 0.614 | 0.349 | 0.303 | 0.237 | 0.25 | 0.208 | 0.174 | 0.136 | 0.863 | 0.839 | 0.804 | 0.539 | 0.629 | 0.51 | 0.683 | 0.498 | 0.413 | 0.412
NCI-H460 | 0.578 | 0.393 | 0.441 | 0.34 | 0.146 | 0.288 | 0.181 | 0.184 | 0.0542 | 0.0736 | 0.46 | 0.325 | 0.475 | 0.329 | 0.351 | 0.308 | 0.36 | 0.278 | 0.494 | 0.225
NCI-H520 | 0.191 | 0.192 | 0.2 | – | 0.195 | 0.186 | 0.223 | 0.221 | 0.21 | 0.167 | 0.873 | 0.762 | 0.97 | – | 0.962 | 0.324 | 0.306 | 0.285 | – | 0.284
NCI-H647 | 0.206 | 0.203 | 0.165 | – | 0.158 | 0.393 | 0.327 | 0.518 | 0.208 | 0.0953 | 1.14 | 1.19 | 0.914 | – | 0.951 | 0.415 | 0.42 | 0.452 | – | 0.347
NCI-H650 | 0.45 | 0.432 | 0.47 | 0.374 | 0.325 | 0.301 | 0.309 | 0.361 | 0.324 | 0.335 | 1.34 | 1.23 | 1.02 | – | 1.07 | 0.875 | 0.876 | 0.953 | – | 0.814
NCI-H661 | 0.899 | 0.815 | 0.946 | 0.722 | 0.768 | 0.398 | 0.4 | 0.406 | 0.282 | 0.248 | 0.593 | 0.539 | 0.46 | 0.667 | 0.449 | – | 0.375 | 0.329 | 0.464 | 0.332
NCI-H727 | 0.421 | 0.274 | 0.372 | 0.252 | 0.252 | 0.565 | 0.66 | – | 0.678 | 0.617 | 0.489 | 0.394 | 0.564 | 0.378 | 0.278 | 0.414 | 0.353 | 0.342 | 0.281 | 0.17
NCI-H838 | 0.273 | 0.258 | 0.267 | 0.227 | 0.225 | 0.23 | 0.23 | 0.262 | 0.212 | 0.137 | 1 | 0.979 | 1.05 | 0.853 | 0.755 | 0.42 | 0.446 | 0.374 | 0.217 | 0.306
NCI-H1355 | 0.627 | 0.68 | 0.518 | 0.525 | 0.254 | 0.397 | 0.425 | 0.436 | 0.373 | 0.331 | 0.78 | 0.718 | 0.675 | 0.632 | 0.549 | 0.433 | 0.437 | 0.343 | 0.228 | 0.359
NCI-H1395 | 0.425 | 0.372 | 0.399 | 0.441 | 0.43 | 0.721 | 0.642 | 0.412 | 0.444 | 0.463 | 0.945 | 0.915 | 1.24 | 0.962 | 0.957 | 0.568 | 0.603 | 0.618 | 0.573 | 0.556
NCI-H1437 | 0.352 | 0.308 | 0.463 | 0.505 | 0.463 | 0.329 | 0.319 | 0.325 | 0.332 | 0.13 | 0.977 | 0.955 | 0.986 | 0.901 | 0.903 | 0.449 | 0.53 | 0.455 | 0.467 | 0.57
NCI-H1651 | 0.343 | 0.386 | 0.416 | 0.251 | 0.301 | 0.526 | 0.57 | 0.61 | 0.518 | 0.576 | 1.03 | 0.989 | 0.822 | 0.738 | 0.957 | 0.505 | 0.569 | 0.475 | 0.377 | 0.508
NCI-H1666 | 0.854 | 0.767 | 0.853 | 0.64 | 0.473 | 0.736 | 0.63 | 0.679 | 0.705 | 0.52 | 0.847 | 0.869 | 0.769 | 0.452 | 0.477 | 0.376 | 0.286 | 0.296 | 0.162 | 0.307
